Publication PMC8566089 (Bioorganic Chemistry, 2021)
Like-named read-outs stand apart in the source and are kept apart here.

Tests used:
[1] = system: MCF7 (breast) cancer cell line; conditions: read-out: IC50 ± SE, MCF7; cited from earlier work
[2] = system: HCT116 (colon) cancer cell line; conditions: read-out: IC50 ± SE, HCT116; cited from earlier work
[3] = system: A431 (squamous skin) cancer cell line; assay: MTT antiproliferative assay, A431; assay type: cell-based; conditions: for IC50: Homo sapiens, A-431, 72 h, read-out: IC50 ± SE, A431; for SI (selectivity index), A431: IC50 of RPE1 relative to that of A431
[4] = system: MCF7 (breast) cancer cell line; assay: MTT antiproliferative assay, MCF7; assay type: cell-based; conditions: for IC50: Homo sapiens, MCF7, 72 h, read-out: IC50 ± SE, MCF7; for SI (selectivity index), MCF7: IC50 of RPE1 relative to that of MCF7
[5] = system: HCT116 (colon) cancer cell line; assay: MTT antiproliferative assay, HCT116; assay type: cell-based; conditions: for IC50: Homo sapiens, HCT-116, 72 h, read-out: IC50 ± SE, HCT116; for SI (selectivity index), HCT116: IC50 of RPE1 relative to that of HCT116
[6] = system: RPE1 (normal human immortalized retinal pigment epithelial cell line); assay: MTT assay against normal RPE1 cells; assay type: cell-based; conditions: RPE-1, read-out: IC50 ± SE, RPE1
[7] = system: HCT116 (colon cancer cell line); assay: PI-flow cytometry cell cycle analysis; assay type: cell-based; conditions: for phase of cell cycle arrest: PI-flow cytometry; for DNA content (%) G0-G1 / DNA content (%) G2/M / DNA content (%) Pre-G1 / DNA content (%) S: at MTT-IC50 of the agent
[8] = system: HCT116 (colon cancer cell line); assay: Annexin V-FITC apoptosis/necrosis study; assay type: cell-based; conditions: at MTT-IC50 of the agent
VEGFR-2 [9] = target: T1, VEGFR-2 (Homo sapiens, UniProt P35968); assay: VEGFR-2 Western blot in MCF7; assay type: cell-based; conditions: for VEGFR2 MCF7 % Inhibition: Western blot at MTT-IC50; for VEGFR2 MCF7 RQ (relative quantification): Western blot at MTT-IC50, control RQ 3.725
VEGFR-2 [10] = target: T1, VEGFR-2; assay: VEGFR-2 Western blot in HCT116; assay type: cell-based; conditions: for VEGFR2 HCT116 % Inhibition: Western blot at MTT-IC50; for VEGFR2 HCT116 RQ (relative quantification): Western blot at MTT-IC50, control RQ 3.817
EGFR [11] = target: T2, EGFR (Homo sapiens, UniProt P00533); assay: EGFR Western blot in MCF7; assay type: cell-based; conditions: for EGFR MCF7 % Inhibition: Western blot at MTT-IC50; for EGFR MCF7 RQ (relative quantification): Western blot at MTT-IC50, control RQ 4.226
EGFR [12] = target: T2, EGFR; assay: EGFR Western blot in HCT116; assay type: cell-based; conditions: for EGFR HCT116 % Inhibition: Western blot at MTT-IC50; for EGFR HCT116 RQ (relative quantification): Western blot at MTT-IC50, control RQ 4.0382
COX-1 = target: T3, COX-1 (Ovis aries, UniProt P05979); assay: COX-1 inhibitor screening kit; assay type: biochemical
T3 sequence (P05979 25-600): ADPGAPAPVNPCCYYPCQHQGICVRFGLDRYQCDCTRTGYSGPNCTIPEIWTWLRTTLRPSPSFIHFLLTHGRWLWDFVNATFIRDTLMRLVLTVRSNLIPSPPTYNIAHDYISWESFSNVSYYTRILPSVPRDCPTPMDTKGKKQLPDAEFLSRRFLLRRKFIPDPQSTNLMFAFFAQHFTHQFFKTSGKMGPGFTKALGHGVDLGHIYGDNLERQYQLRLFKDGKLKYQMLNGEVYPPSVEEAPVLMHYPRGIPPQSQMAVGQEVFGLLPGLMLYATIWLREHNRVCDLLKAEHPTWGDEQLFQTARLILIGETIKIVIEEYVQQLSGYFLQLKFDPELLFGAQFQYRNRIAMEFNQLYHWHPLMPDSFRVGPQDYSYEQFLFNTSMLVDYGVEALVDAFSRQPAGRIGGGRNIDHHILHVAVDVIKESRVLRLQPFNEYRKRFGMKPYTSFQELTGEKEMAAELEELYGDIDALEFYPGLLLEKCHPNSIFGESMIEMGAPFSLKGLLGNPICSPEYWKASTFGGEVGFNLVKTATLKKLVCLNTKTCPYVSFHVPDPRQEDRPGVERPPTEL

COX-2 = target: T4, COX-2 (Homo sapiens, UniProt P35354); assay: COX-2 inhibitor screening kit; assay type: biochemical
T4 sequence (P35354 18-604): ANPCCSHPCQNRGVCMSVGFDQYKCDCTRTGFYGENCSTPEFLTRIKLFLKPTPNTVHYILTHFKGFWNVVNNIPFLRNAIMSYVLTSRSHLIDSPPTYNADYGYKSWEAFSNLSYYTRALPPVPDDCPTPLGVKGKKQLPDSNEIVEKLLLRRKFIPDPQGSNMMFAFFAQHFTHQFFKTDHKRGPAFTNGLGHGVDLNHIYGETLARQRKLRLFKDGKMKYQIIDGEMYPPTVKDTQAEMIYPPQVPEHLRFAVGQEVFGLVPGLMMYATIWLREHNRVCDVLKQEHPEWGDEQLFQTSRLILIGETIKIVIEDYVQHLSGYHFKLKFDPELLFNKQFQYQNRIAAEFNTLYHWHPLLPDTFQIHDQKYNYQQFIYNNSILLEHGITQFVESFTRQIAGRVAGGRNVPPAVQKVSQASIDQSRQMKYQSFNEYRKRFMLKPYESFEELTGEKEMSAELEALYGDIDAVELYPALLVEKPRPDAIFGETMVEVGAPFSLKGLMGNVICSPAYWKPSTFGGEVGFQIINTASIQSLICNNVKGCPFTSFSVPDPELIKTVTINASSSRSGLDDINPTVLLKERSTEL

[13] = system: SARS-CoV-2 (hCoV-19/Egypt/NRC-03/2020); conditions: SARS-CoV-2 / VERO-E6

T1 sequence (P35968 20-1356): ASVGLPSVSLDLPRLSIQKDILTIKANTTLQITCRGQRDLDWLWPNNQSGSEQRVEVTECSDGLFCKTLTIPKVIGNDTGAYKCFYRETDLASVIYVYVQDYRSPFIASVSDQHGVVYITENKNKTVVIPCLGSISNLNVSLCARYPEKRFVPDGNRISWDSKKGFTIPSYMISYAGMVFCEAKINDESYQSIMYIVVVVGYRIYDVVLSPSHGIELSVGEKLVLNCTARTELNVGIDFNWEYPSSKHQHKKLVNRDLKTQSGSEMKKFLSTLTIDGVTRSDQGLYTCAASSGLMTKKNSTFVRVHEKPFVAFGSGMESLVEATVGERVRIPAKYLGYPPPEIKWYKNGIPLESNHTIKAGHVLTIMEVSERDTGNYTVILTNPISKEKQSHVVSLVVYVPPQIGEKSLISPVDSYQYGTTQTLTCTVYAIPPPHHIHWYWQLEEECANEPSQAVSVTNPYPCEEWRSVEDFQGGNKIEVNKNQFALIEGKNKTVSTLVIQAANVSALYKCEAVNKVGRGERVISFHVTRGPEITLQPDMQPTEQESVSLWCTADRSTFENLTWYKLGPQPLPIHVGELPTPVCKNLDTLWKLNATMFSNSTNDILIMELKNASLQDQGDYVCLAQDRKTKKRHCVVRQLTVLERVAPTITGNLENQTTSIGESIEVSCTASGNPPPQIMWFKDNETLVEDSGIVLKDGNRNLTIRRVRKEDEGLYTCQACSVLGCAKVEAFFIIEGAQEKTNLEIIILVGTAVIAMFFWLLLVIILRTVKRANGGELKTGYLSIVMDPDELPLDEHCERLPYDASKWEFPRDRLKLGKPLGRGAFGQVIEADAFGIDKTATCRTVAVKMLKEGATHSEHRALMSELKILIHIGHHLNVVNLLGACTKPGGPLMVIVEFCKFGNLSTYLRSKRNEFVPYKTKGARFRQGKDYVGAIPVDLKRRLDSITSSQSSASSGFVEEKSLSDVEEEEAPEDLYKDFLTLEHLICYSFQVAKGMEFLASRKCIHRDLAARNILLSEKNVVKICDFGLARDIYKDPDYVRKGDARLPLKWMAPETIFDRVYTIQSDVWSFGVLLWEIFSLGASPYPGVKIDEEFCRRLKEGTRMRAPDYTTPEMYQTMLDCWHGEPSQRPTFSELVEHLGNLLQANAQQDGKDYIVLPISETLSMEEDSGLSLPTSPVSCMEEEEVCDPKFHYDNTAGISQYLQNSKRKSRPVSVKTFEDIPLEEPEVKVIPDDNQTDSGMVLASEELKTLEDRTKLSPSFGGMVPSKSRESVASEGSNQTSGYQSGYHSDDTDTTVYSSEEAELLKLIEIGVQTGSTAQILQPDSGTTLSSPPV
T2 sequence (P00533 25-1210): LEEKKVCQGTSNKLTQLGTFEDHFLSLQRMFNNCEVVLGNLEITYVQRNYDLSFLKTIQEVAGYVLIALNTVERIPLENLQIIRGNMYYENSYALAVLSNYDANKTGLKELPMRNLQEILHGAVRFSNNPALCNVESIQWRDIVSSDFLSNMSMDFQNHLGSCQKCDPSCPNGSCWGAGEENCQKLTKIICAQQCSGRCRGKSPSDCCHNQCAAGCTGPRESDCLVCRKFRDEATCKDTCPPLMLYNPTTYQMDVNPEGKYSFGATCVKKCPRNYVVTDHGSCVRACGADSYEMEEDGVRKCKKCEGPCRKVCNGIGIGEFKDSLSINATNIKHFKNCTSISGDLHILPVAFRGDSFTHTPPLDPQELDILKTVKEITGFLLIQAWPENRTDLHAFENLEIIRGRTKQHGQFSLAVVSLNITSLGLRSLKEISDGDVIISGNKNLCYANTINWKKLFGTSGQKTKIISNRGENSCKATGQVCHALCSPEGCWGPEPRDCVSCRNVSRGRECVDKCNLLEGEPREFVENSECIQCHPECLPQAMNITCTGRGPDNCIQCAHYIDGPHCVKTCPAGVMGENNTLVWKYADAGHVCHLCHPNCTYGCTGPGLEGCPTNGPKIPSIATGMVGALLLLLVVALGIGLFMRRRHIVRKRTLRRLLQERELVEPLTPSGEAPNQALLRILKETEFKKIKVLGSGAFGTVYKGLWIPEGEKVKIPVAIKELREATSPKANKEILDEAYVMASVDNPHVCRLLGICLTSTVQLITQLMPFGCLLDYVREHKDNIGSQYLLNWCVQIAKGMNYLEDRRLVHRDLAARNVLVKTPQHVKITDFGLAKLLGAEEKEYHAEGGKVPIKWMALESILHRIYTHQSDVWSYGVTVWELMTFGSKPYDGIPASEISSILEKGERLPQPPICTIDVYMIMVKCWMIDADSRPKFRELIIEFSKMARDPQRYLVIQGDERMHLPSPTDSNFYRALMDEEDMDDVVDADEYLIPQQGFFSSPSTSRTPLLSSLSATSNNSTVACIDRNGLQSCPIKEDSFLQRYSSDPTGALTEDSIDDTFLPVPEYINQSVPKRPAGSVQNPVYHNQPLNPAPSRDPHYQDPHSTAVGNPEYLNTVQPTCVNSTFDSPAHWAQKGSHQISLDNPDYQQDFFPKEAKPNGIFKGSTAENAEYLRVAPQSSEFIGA

Compound | IC50 [3] [µM] | SI (selectivity index), A431 [3] | IC50 [4] [µM] | SI (selectivity index), MCF7 [4] | IC50 [5] [µM] | SI (selectivity index), HCT116 [5] | IC50 [6] [µM] | phase of cell cycle arrest [7] | DNA content (%) G0-G1 [7] [%] | DNA content (%) G2/M [7] [%] | DNA content (%) Pre-G1 [7] [%] | DNA content (%) S [7] [%] | Apoptosis (%) Early [8] [%] | Apoptosis (%) Total [8] [%] | Necrosis (%) [8] [%] | VEGFR2 MCF7 % Inhibition (VEGFR-2 [9]) [%] | VEGFR2 MCF7 RQ (relative quantification) (VEGFR-2 [9]) | VEGFR2 HCT116 % Inhibition (VEGFR-2 [10]) [%] | VEGFR2 HCT116 RQ (relative quantification) (VEGFR-2 [10]) | EGFR MCF7 % Inhibition (EGFR [11]) [%] | other results
COc1cc(/C=C/C(=O)CC(=O)/C=C/c2ccc(O)c(OC)c2)ccc1O [Cur, curcumin] | – | – | – | – | – | – | – | – | – | – | – | – | – | – | – | – | – | – | – | – | IC50 [1]: 16 ± 2.04 µM; IC50 [2]: 38.2 ± 2.36 µM
COc1cc(/C=C2\CN(C(=O)c3cc(Cl)ccc3OC(C)=O)C/C(=C\c3cc(OC)c(OC)c(OC)c3)C2=O)cc(OC)c1OC [Compound 5o, 4-Chloro-2-(4-oxo-3,5-bis((E)-3,4,5-trimethoxybenzylidene)piperidine-1-carbonyl)phenyl acetate] | 0.431 ± 0.03 | 16.3 | 2.65 ± 0.22 | 2.65 | 0.75 ± 0.06 | 9.36 | 7.02 ± 0.45 | S-phase | 42.75 | 4.14 | 35.75 | 53.11 | 1.72 | 35.75 | 9.44 | 63.0 | 1.38 | 69.6 | 1.16 | 69.2 | EGFR MCF7 RQ (relative quantification) (EGFR [11]): 1.3; EGFR HCT116 % Inhibition (EGFR [12]): 68.2%; EGFR HCT116 RQ (relative quantification) (EGFR [12]): 1.283; IC50 (COX-1): 0.193 µM; IC50 (COX-2): 1.6 µM; SI = IC50(COX-1)/IC50(COX-2) (COX-2): 0.121; SI = CC50/IC50 [13]: 34.0
CC(=O)Oc1ccccc1C(=O)N1C/C(=C\c2ccc(Cl)cc2)C(=O)/C(=C/c2ccc(Cl)cc2)C1 [Compound 5c, 2-[3,5-Bis((E)-4-chlorobenzylidene)-4-oxopiperidine-1-carbonyl]phenyl acetate] | 1.21 ± 0.11 | 7.3 | 2.81 ± 0.26 | 3.15 | 0.986 ± 0.08 | 8.96 | 8.83 ± 0.68 | G1-phase | 55.28 | 3.59 | 44.28 | 41.13 | 2.29 | 44.28 | 13.41 | 59.5 | 1.51 | 73.3 | 1.02 | 85.6 | Apoptosis (%) Late [8]: 28.58%; EGFR MCF7 RQ (relative quantification) (EGFR [11]): 0.61; EGFR HCT116 % Inhibition (EGFR [12]): 62.9%; EGFR HCT116 RQ (relative quantification) (EGFR [12]): 1.5; IC50 (COX-1): 0.271 µM; IC50 (COX-2): 2.25 µM; SI = IC50(COX-1)/IC50(COX-2) (COX-2): 0.121; SI = CC50/IC50 [13]: 1.7
